Assay: Inhibition of HCV genotype 1 polymerase
Parameters: species or system Hepacivirus hominis
Compound `CC(C)CCn1c(=O)c(C2=NS(=O)(=O)c3cc(NS(=O)(=O)N4CCCCC4)ccc3N2)c(O)c2cccnc21` has an IC50 of 51 nM.
`CC(C)CCn1c(=O)c(C2=NS(=O)(=O)c3cc(NS(=O)(=O)N(C)C(=O)OCc4ccccc4)ccc3N2)c(O)c2cccnc21` showed an IC50 of 121 nM.
`CC(C)CCNn1c(=O)c(C2=NS(=O)(=O)c3ccccc3N2)c(O)c2ccccc21` gave an IC50 of 629 nM.
`CNS(=O)(=O)Nc1ccc2c(c1)S(=O)(=O)NC(c1c(O)c3cccnc3n(CCC(C)C)c1=O)=N2` gave an IC50 of 14 nM.
`CC(C)CCn1c(=O)c(C2=NS(=O)(=O)c3cc(NS(=O)(=O)N4CCC4)ccc3N2)c(O)c2cccnc21` gave an IC50 of 24 nM.
For `O=c1c(C2=NS(=O)(=O)c3ccccc3N2)c(O)c2ccccc2n1NCC1=CCOC=C1`, the IC50 was 4630 nM.
For `COc1cccc2c1NC(c1c(O)c3cccnc3n(CCC(C)C)c1=O)=NS2(=O)=O`, the IC50 was 17600 nM.
With `O=c1c(C2=NS(=O)(=O)c3ccccc3N2)c(O)c2ccccc2n1NCc1ccccc1Br` the IC50 was 6720 nM.
In the case of `CNS(=O)(=O)Nc1ccc2c(c1)S(=O)(=O)N=C(c1c(O)c3cccnc3n(NC3CCC3)c1=O)N2`, the IC50 is reported as 87000 nM.
With `CC(C)CCn1c(=O)c(C2=NS(=O)(=O)c3cc(NS(=O)(=O)Nc4ccc(C(=O)O)cc4)ccc3N2)c(O)c2cccnc21` the IC50 was 20 nM.
Work on `COC(=O)c1ccc(NS(=O)(=O)Nc2ccc3c(c2)S(=O)(=O)N=C(c2c(O)c4cccnc4n(CCC(C)C)c2=O)N3)cc1` yielded an IC50 of 48 nM.
Work on `O=c1c(C2=NS(=O)(=O)c3ccccc3N2)c(O)c2ccccc2n1NCC1CCCCCC1` yielded an IC50 of 1040 nM.
Compound `O=c1c(C2=NS(=O)(=O)c3ccccc3N2)c(O)c2ccccc2n1NCc1ccoc1` has an IC50 of 1550 nM.
Compound `CC(C)CCn1c(=O)c(C2=NS(=O)(=O)c3cc(NS(=O)(=O)NCCO)ccc3N2)c(O)c2cccnc21` has an IC50 of 107 nM.
Work on `CC(C)CCn1c(=O)c(C2=NS(=O)(=O)c3cc(NS(=O)(=O)NCCC(N)=O)ccc3N2)c(O)c2cccnc21` yielded an IC50 of 20 nM.
For `CC(C)CCn1c(=O)c(C2=NS(=O)(=O)c3cc(OCCN)ccc3N2)c(O)c2cccnc21`, the IC50 was 637000 nM.
With `COc1cccc2c1NC(c1c(O)c3cccnc3n(Cc3ccccc3)c1=O)=NS2(=O)=O` the IC50 was 18000 nM.
`O=c1c(C2=NS(=O)(=O)c3ccccc3N2)c(O)c2ccccc2n1NCc1cccc(Br)c1` gave an IC50 of 1040 nM.
With `CC(C)CCn1c(=O)c(C2=NS(=O)(=O)c3cc(NS(=O)(=O)Nc4cccc(C(=O)NCC(N)=O)c4)ccc3N2)c(O)c2cccnc21` the IC50 was 43 nM.
`CC(C)CCn1c(=O)c(C2=NS(=O)(=O)c3cc(NCC#N)ccc3N2)c(O)c2cccnc21` gave an IC50 of 120 nM.
Compound `CNC(=O)COc1ccc2c(c1)S(=O)(=O)NC(c1c(O)c3cccnc3n(CCC(C)C)c1=O)=N2` has an IC50 of 180 nM.
`CCCC(CCC)Nn1c(=O)c(C2=NS(=O)(=O)c3ccccc3N2)c(O)c2ccccc21` showed an IC50 of 2240 nM.
`COc1cccc(CNS(=O)(=O)Nc2ccc3c(c2)S(=O)(=O)N=C(c2c(O)c4cccnc4n(CCC(C)C)c2=O)N3)c1` showed an IC50 of 15 nM.
`CC(C)CCn1c(=O)c(C2=NS(=O)(=O)c3cc(NS(=O)(=O)NCCN)ccc3N2)c(O)c2cccnc21` showed an IC50 of 10 nM.
`CC(C)CCn1c(=O)c(C2=NS(=O)(=O)c3cc(OCC#N)ccc3N2)c(O)c2cccnc21` gave an IC50 of 141 nM.
`COC(=O)NS(=O)(=O)Nc1ccc2c(c1)S(=O)(=O)N=C(c1c(O)c3cccnc3n(CCC(C)C)c1=O)N2` gave an IC50 of 63 nM.
Compound `CCCOc1ccc2c(c1)S(=O)(=O)NC(c1c(O)c3cccnc3n(CCC(C)C)c1=O)=N2` has an IC50 of 1620 nM.
Work on `CC(C)CCn1c(=O)c(C2=NS(=O)(=O)c3cc(NCC(N)=O)ccc3N2)c(O)c2cccnc21` yielded an IC50 of 470 nM.
Compound `O=c1c(C2=NS(=O)(=O)c3ccccc3N2)c(O)c2ccccc2n1NC1CCCCC1` has an IC50 of 356 nM.
Work on `CC(C)CCn1c(=O)c(C2=NS(=O)(=O)c3cc(NS(=O)(=O)NCc4ccccc4)ccc3N2)c(O)c2cccnc21` yielded an IC50 of 5.5 nM.
`Cc1ccsc1CNn1c(=O)c(C2=NS(=O)(=O)c3ccccc3N2)c(O)c2ccccc21` showed an IC50 of 15000 nM.
`CC(C)CCn1c(=O)c(C2=NS(=O)(=O)c3cc(OCC(=O)OC(C)(C)C)ccc3N2)c(O)c2cccnc21` gave an IC50 of 5000 nM.
`Cc1ccccc1CNn1c(=O)c(C2=NS(=O)(=O)c3ccccc3N2)c(O)c2ccccc21` gave an IC50 of 6120 nM.
In the case of `O=c1c(C2=NS(=O)(=O)c3cccc(O)c3N2)c(O)c2cccnc2n1Cc1ccccc1`, the IC50 is reported as 8370 nM.
With `CC(C)CCn1c(=O)c(C2=NS(=O)(=O)c3cc(N)ccc3N2)c(O)c2cccnc21` the IC50 was 310 nM.
`CC(C)CNn1c(=O)c(C2=NS(=O)(=O)c3ccccc3N2)c(O)c2ccccc21` showed an IC50 of 941 nM.
`CC(C)CCn1c(=O)c(C2=NS(=O)(=O)c3cc(NS(=O)(=O)NC(=O)OCCN)ccc3N2)c(O)c2cccnc21` gave an IC50 of 21 nM.
Work on `O=c1c(C2=NS(=O)(=O)c3ccccc3N2)c(O)c2ccccc2n1NCC1CC1` yielded an IC50 of 285 nM.
`CC(C)CCn1c(=O)c(C2=NS(=O)(=O)c3cc(NS(=O)(=O)NC4CCCCC4)ccc3N2)c(O)c2cccnc21` showed an IC50 of 67 nM.
For `CCOC(=O)c1cccc(NS(=O)(=O)Nc2ccc3c(c2)S(=O)(=O)N=C(c2c(O)c4cccnc4n(CCC(C)C)c2=O)N3)c1`, the IC50 was 132 nM.
`COc1ccc2c(c1)S(=O)(=O)N=C(c1c(O)c3cccnc3n(CCC(C)C)c1=O)N2` showed an IC50 of 1130 nM.
Work on `NS(=O)(=O)Nc1ccc2c(c1)S(=O)(=O)N=C(c1c(O)c3cccnc3n(NC3CCC3)c1=O)N2` yielded an IC50 of 5.2 nM.
Work on `CCOC(=O)COC(=O)NS(=O)(=O)Nc1ccc2c(c1)S(=O)(=O)NC(c1c(O)c3cccnc3n(CCC(C)C)c1=O)=N2` yielded an IC50 of 61 nM.
In the case of `C#CCOC(=O)NS(=O)(=O)Nc1ccc2c(c1)S(=O)(=O)N=C(c1c(O)c3cccnc3n(CCC(C)C)c1=O)N2`, the IC50 is reported as 72 nM.
Work on `CC(C)CCn1c(=O)c(C2=NS(=O)(=O)c3cc(NS(=O)(=O)NC4CCNCC4)ccc3N2)c(O)c2cccnc21` yielded an IC50 of 32 nM.
`CC(C)CCn1c(=O)c(C2=NS(=O)(=O)c3cc(NS(=O)(=O)NC(=O)OCc4ccccc4)ccc3N2)c(O)c2cccnc21` gave an IC50 of 58 nM.
`CCCC(CC)Nn1c(=O)c(C2=NS(=O)(=O)c3ccccc3N2)c(O)c2ccccc21` (centres undefined) gave an IC50 of 1890 nM.
`COc1ccccc1CNS(=O)(=O)Nc1ccc2c(c1)S(=O)(=O)N=C(c1c(O)c3cccnc3n(CCC(C)C)c1=O)N2` gave an IC50 of 57 nM.
`CC(C)CCn1c(=O)c(C2=NS(=O)(=O)c3cc(NS(=O)(=O)N4CCCC4)ccc3N2)c(O)c2cccnc21` gave an IC50 of 27 nM.
Compound `CC(C)CCn1c(=O)c(C2=NS(=O)(=O)c3cc(OCC(=O)O)ccc3N2)c(O)c2cccnc21` has an IC50 of 367 nM.
For `CCCC(Nn1c(=O)c(C2=NS(=O)(=O)c3ccccc3N2)c(O)c2ccccc21)C(C)C` (centres undefined), the IC50 was 6400 nM.
Compound `CC(C)(C)CCNn1c(=O)c(C2=NS(=O)(=O)c3ccccc3N2)c(O)c2ccccc21` has an IC50 of 411 nM.
For `O=c1c(C2=NS(=O)(=O)c3ccccc3N2)c(O)c2ccccc2n1NCC1CCCCC1`, the IC50 was 2530 nM.
`CC(C)CCn1c(=O)c(C2=NS(=O)(=O)c3cc(NS(N)(=O)=O)ccc3N2)c(O)c2cccnc21` showed an IC50 of 9 nM.
With `C=CCOC(=O)NS(=O)(=O)Nc1ccc2c(c1)S(=O)(=O)N=C(c1c(O)c3cccnc3n(CCC(C)C)c1=O)N2` the IC50 was 88 nM.
`COc1ccc(CNS(=O)(=O)Nc2ccc3c(c2)S(=O)(=O)N=C(c2c(O)c4cccnc4n(CCC(C)C)c2=O)N3)cc1` gave an IC50 of 10 nM.
For `CC(C)CCn1c(=O)c(C2=NS(=O)(=O)c3cc(NS(=O)(=O)NC(=O)OCCOCc4ccccc4)ccc3N2)c(O)c2cccnc21`, the IC50 was 96 nM.
`CC(C)CCn1c(=O)c(C2=NS(=O)(=O)c3cc(NS(=O)(=O)NC(=O)OCCCl)ccc3N2)c(O)c2cccnc21` gave an IC50 of 189 nM.
`CC(C)CCn1c(=O)c(C2=NS(=O)(=O)c3cc(NS(=O)(=O)Nc4ccc(C(N)=O)cc4)ccc3N2)c(O)c2cccnc21` showed an IC50 of 18 nM.
Compound `O=c1c(C2=NS(=O)(=O)c3ccccc3N2)c(O)c2ccccc2n1NCC1CCCC1` has an IC50 of 747 nM.
With `Cc1cccc(CNn2c(=O)c(C3=NS(=O)(=O)c4ccccc4N3)c(O)c3ccccc32)c1` the IC50 was 8210 nM.
For `CCCCCNn1c(=O)c(C2=NS(=O)(=O)c3ccccc3N2)c(O)c2ccccc21`, the IC50 was 928 nM.
`CC(C)CCn1c(=O)c(C2=NS(=O)(=O)c3cc(O)ccc3N2)c(O)c2cccnc21` gave an IC50 of 390 nM.
Work on `CC(C)CCn1c(=O)c(C2=NS(=O)(=O)c3cc(NS(=O)(=O)NCCc4ccccc4)ccc3N2)c(O)c2cccnc21` yielded an IC50 of 18 nM.
Work on `CC(C)CCn1c(=O)c(C2=NS(=O)(=O)c3cc(NC(=O)C(F)(F)F)ccc3N2)c(O)c2cccnc21` yielded an IC50 of 906 nM.
Compound `O=c1c(C2=NS(=O)(=O)c3ccccc3N2)c(O)c2ccccc2n1NCc1ccco1` has an IC50 of 3260 nM.
`CCCCS(=O)(=O)Nc1ccc2c(c1)S(=O)(=O)NC(c1c(O)c3cccnc3n(CCC(C)C)c1=O)=N2` showed an IC50 of 22 nM.
In the case of `CC(C)CCn1c(=O)c(C2=NS(=O)(=O)c3cc(NS(=O)(=O)Nc4cccc(C(=O)O)c4)ccc3N2)c(O)c2cccnc21`, the IC50 is reported as 115 nM.
`CC(C)CCn1c(=O)c(C2=NS(=O)(=O)c3cc(OCC(=O)N(C)C)ccc3N2)c(O)c2cccnc21` gave an IC50 of 934 nM.
`CC(C)Nn1c(=O)c(C2=NS(=O)(=O)c3ccccc3N2)c(O)c2ccccc21` showed an IC50 of 6350 nM.
For `Cc1cccc2c1N=C(c1c(O)c3cccnc3n(Cc3ccccc3)c1=O)NS2(=O)=O`, the IC50 was 6700 nM.
For `O=c1c(C2=NS(=O)(=O)c3ccccc3N2)c(O)c2ccccc2n1NCc1nccs1`, the IC50 was 35800 nM.
For `CCC(CC)Nn1c(=O)c(C2=NS(=O)(=O)c3ccccc3N2)c(O)c2ccccc21`, the IC50 was 2460 nM.
In the case of `CC(Nn1c(=O)c(C2=NS(=O)(=O)c3ccccc3N2)c(O)c2ccccc21)c1ccccc1` (centres undefined), the IC50 is reported as 16500 nM.
`CC(C)CCn1c(=O)c(C2=NS(=O)(=O)c3ccccc3N2)c(O)c2cccnc21` showed an IC50 of 810 nM.
Work on `Cc1ccc2c(c1)S(=O)(=O)NC(c1c(O)c3cccnc3n(Cc3ccccc3)c1=O)=N2` yielded an IC50 of 25700 nM.
`CC(C)CCn1c(=O)c(C2=NS(=O)(=O)c3cc(OCC(N)=O)ccc3N2)c(O)c2cccnc21` showed an IC50 of 46 nM.
`CC(C)CCn1c(=O)c(C2=NS(=O)(=O)c3cc(NS(=O)(=O)C(C)C)ccc3N2)c(O)c2cccnc21` showed an IC50 of 8 nM.
`CC(C)CCn1c(=O)c(C2=NS(=O)(=O)c3cc(NS(=O)(=O)NC(=O)OCC(=O)O)ccc3N2)c(O)c2cccnc21` showed an IC50 of 50 nM.
For `O=c1c(C2=NS(=O)(=O)c3cccc(Br)c3N2)c(O)c2cccnc2n1Cc1ccccc1`, the IC50 was 6200 nM.
Work on `CC(C)CCn1c(=O)c(C2=NS(=O)(=O)c3cc(NS(=O)(=O)Nc4ccccc4)ccc3N2)c(O)c2cccnc21` yielded an IC50 of 41 nM.
For `COC(=O)c1ccccc1NS(=O)(=O)Nc1ccc2c(c1)S(=O)(=O)N=C(c1c(O)c3cccnc3n(CCC(C)C)c1=O)N2`, the IC50 was 129 nM.
Compound `COc1ccc2c(c1)S(=O)(=O)NC(c1c(O)c3cccnc3n(Cc3ccccc3)c1=O)=N2` has an IC50 of 8310 nM.
`CC(C)CCn1c(=O)c(C2=NS(=O)(=O)c3cc(NS(=O)(=O)NC4CCCC4)ccc3N2)c(O)c2cccnc21` showed an IC50 of 39 nM.
